Each structure is given as a SMILES string.

In the assay the target is T1, USP28 (His-tagged USP28-FL-mammalian) (Homo sapiens, UniProt Q96RU2).
T1 construct: Expression of USP28 (1-1077)-TEV-6*His (pTT5 vector); made in house; host or cells: Expi293f cells (pTT5 vector)
T1 sequence (Q96RU2 1-1077): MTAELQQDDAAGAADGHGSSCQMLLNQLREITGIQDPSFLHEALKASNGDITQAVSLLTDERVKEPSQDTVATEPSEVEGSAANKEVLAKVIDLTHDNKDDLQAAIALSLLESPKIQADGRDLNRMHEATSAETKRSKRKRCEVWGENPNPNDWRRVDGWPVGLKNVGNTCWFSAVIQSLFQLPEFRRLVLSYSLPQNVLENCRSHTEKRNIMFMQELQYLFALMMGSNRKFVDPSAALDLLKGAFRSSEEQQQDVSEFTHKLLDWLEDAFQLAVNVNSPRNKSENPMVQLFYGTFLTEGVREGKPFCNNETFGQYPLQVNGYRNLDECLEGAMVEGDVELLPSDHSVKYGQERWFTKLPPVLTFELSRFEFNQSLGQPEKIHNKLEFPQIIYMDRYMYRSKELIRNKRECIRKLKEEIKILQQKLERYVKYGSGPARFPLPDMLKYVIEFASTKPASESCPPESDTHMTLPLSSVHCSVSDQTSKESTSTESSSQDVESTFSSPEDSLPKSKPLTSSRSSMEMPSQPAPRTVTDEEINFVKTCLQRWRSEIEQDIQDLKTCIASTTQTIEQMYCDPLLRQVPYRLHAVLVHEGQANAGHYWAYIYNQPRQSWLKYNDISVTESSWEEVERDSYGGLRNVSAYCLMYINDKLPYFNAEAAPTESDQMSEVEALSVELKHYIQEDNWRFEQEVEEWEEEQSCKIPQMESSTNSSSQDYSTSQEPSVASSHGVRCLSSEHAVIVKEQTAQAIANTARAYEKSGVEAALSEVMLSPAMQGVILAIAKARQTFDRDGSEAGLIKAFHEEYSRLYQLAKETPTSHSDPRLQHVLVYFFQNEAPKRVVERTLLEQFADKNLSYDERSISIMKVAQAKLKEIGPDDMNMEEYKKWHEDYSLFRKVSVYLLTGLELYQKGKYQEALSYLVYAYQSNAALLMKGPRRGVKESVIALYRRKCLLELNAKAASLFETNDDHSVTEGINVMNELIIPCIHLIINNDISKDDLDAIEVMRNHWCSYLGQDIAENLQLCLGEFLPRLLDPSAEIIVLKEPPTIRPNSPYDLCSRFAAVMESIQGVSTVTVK
Kind of assay: Ubiquitin-Rhodamine 110 Assay for USP28 Activity, Example A-1(a). It counts as biochemical. To be noted: Ubiquitin-Rhodamine 110 assay, Example A-1(a); read-out: USP28 A-1(a) IC50 range. Summed up:
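IC50 from 4-parameter logistic fit of percent inhibition versus no-enzyme and DMSO controls; compounds 25 μM to 1.3 nM, 3-fold. Ub-Rh110 cleavage (25 nM, below Km) by […] mammalian-expressed USP28-FL-His ran 45 min at room temperature, stopped with 10 mM citric acid, read ex 485/em 535.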
As to `CO[C@H]1CN(c2nc3c(cc2F)C[C@@H](NC(=O)c2sc4nc(C)ccc4c2N)CC3)C[C@@H]1N` [Example 183, 3-amino-N-[(6S)-2-[(3S,4S)-3-amino-4-methoxypyrrolidin-1-yl]-3-fluoro-5,6,7,8-tetrahydroquinolin-6-yl]-6-methylthieno[2,3-b]pyridine-2-carboxamide], the IC50 was 0.05 to 0.2 µM. The result for `CO[C@H]1CN(c2ccc3c(n2)CC[C@H](NC(=O)c2sc4nc(C)c(F)cc4c2N)C3)C[C@@H]1N` [Example 203, 3-amino-N-[(6S)-2-[(3S,4S)-3-amino-4-methoxypyrrolidin-1-yl]-5,6,7,8-tetrahydroquinolin-6-yl}-5-fluoro-6-methylthieno[2,3-b]pyridine-2-carboxamide] reads 0.05 to 0.2 µM; that for `Cc1ccc2c(N)c(C(=O)N[C@H]3COc4cc(N5C6CNCC5COC6)ccc4C3)sc2n1` [Example 209, 3-amino-6-methyl-N-[(3R)-7-{3-oxa-7,9-diazabicyclo[3.3.1]nonan-9-yl}-3,4-dihydro-2H-1-benzopyran-3-yl]thieno[2,3-b]pyridine-2-carboxamide], 0.001 to 0.05 µM; that for `Cc1ccc2c(N)c(C(=O)N[C@H]3COc4cc(N5C[C@H](N)CC[C@H]5C(F)(F)F)ccc4C3)sc2n1` [Example 247, 3-amino-N-[(3R)-7-[(2S,5R)-5-amino-2-(trifluoromethyl)piperidin-1-yl]-3,4-dihydro-2H-1-benzopyran-3-yl]-6-methylthieno[2,3-b]pyridine-2-carboxamide], 0.001 to 0.05 µM. The result for `CO[C@H]1CN(c2cc3c(c(F)c2C#N)C[C@@H](NC(=O)c2sc4nc(C)cnc4c2N)CO3)C[C@@H]1N` [Example 199, 7-amino-N-[(3R)-7-[(3S,4S)-3-amino-4-methoxypyrrolidin-1-yl]-6-cyano-5-fluoro-3,4-dihydro-2H-1-benzopyran-3-yl]-3-methylthieno[2,3-b]pyrazine-6-carboxamide] reads 0.001 to 0.05 µM.

On to `Cc1ccc2c(N)c(C(=O)N[C@H]3COc4cc(N5C[C@@H](N)CC[C@@H]5C(F)(F)F)ccc4C3)sc2n1` [Example 246, 3-amino-N-[(3R)-7-[(2R,5S)-5-amino-2-(trifluoromethyl)piperidin-1-yl]-3,4-dihydro-2H-1-benzopyran-3-yl]-6-methylthieno[2,3-b]pyridine-2-carboxamide], for which the IC50 lay within 0.001 to 0.05 µM. The result for `Cc1ccc2c(N)c(C(=O)N[C@H]3COc4cc(N5CC[C@H]6CCNC[C@H]65)ccc4C3)sc2n1` [Example 224, N-[(3R)-7-[(3aR,7aS)-octahydro-1H-pyrrolo[2,3-c]pyridin-1-yl]-3,4-dihydro-2H-1-benzopyran-3-yl]-3-amino-6-methylthieno[2,3-b]pyridine-2-carboxamide] reads 0.001 to 0.05 µM.

As for `Cc1ccc2c(N)c(C(=O)N[C@H]3COc4cc(N5CC[C@@H]6CNCC[C@@H]65)ccc4C3)sc2n1` [Example 236, N-[(3R)-7-[(3aR,7aS)-octahydro-1H-pyrrolo[3,2-c]pyridin-1-yl]-3,4-dihydro-2H-1-benzopyran-3-yl]-3-amino-6-methylthieno[2,3-b]pyridine-2-carboxamide], the IC50 was 0.001 to 0.05 µM.

On to `Cc1ccc2c(N)c(C(=O)N[C@H]3COc4cc(N5CC[C@@H]6CNC[C@@H]65)cc(F)c4C3)sc2n1` [Example 221, N-[(3R)-7-[(3aR,6aR)-octahydropyrrolo[2,3-c]pyrrol-1-yl]-5-fluoro-3,4-dihydro-2H-1-benzopyran-3-yl]-3-amino-6-methylthieno[2,3-b]pyridine-2-carboxamide], for which the IC50 fell in the range of 0.001 to 0.05 µM. The value for `Cc1ccc2c(N)c(C(=O)N[C@H]3COc4cc(N5C[C@H](N)C(F)(F)C5)ccc4C3)sc2n1` [Example 256, 3-amino-N-[(3R)-7-[(4S)-4-amino-3,3-difluoropyrrolidin-1-yl]-3,4-dihydro-2H-1-benzopyran-3-yl]-6-methylthieno[2,3-b]pyridine-2-carboxamide] was 0.001 to 0.05 µM; that for `COC[C@H]1CN(c2cc(F)c3c(c2)OC[C@H](NC(=O)c2sc4nc(C)ccc4c2N)C3)C[C@H]1N` [Example 251, 3-amino-N-[(3R)-7-[(3S,4S)-3-amino-4-(methoxymethyl)pyrrolidin-1-yl]-5-fluoro-3,4-dihydro-2H-1-benzopyran-3-yl]-6-methylthieno[2,3-b]pyridine-2-carboxamide] was 0.001 to 0.05 µM. The value for `Cc1ccc2c(N)c(C(=O)N[C@H]3COc4cc(N5C[C@H](N)C(C)(C)C5)ccc4C3)sc2n1` [Example 214, 3-amino-N-[(3R)-7-[(4R)-4-amino-3,3-dimethylpyrrolidin-1-yl]-3,4-dihydro-2H-1-benzopyran-3-yl]-6-methylthieno[2,3-b]pyridine-2-carboxamide] was 0.001 to 0.05 µM; that for `Cc1ccc2c(N)c(C(=O)N[C@@H]3Cc4ccc(N5CCNCC5)nc4[C@H](C)C3)sc2n1` [Example 207, 3-amino-6-methyl-N-[(6S,8R)-8-methyl-2-(piperazin-1-yl)-5,6,7,8-tetrahydroquinolin-6-yl]thieno[2,3-b]pyridine-2-carboxamide] was 0.2 to 2 µM. With `Cc1ccc2c(N)c(C(=O)N[C@H]3COc4cc(N5CC[C@H]6CC[C@@H](N)C[C@H]65)ccc4C3)sc2n1` [Example 231, N-[(3R)-7-[(3aR,6R,7aR)-6-amino-octahydro-1H-indol-1-yl]-3,4-dihydro-2H-1-benzopyran-3-yl]-3-amino-6-methylthieno[2,3-b]pyridine-2-carboxamide], the IC50 lay within 0.001 to 0.05 µM.

As for `O=C(N[C@@H]1CCc2cc(N3CC4CCC(C3)N4)cc(F)c2C1)c1cnc2c(c1)[C@@H]1C[C@@H]1CN2` [Example 193, (6aS,7aR)-N-[(2R)-6-{3,8-diazabicyclo[3.2.1]octan-3-yl}-8-fluoro-1,2,3,4-tetrahydronaphthalen-2-yl]-5H,6H,6aH,7H,7aH-cyclopropa[c]1,8-naphthyridine-2-carboxamide], the IC50 lay within 0.2 to 2 µM. The result for `Cc1ccc2c(N)c(C(=O)N[C@H]3COc4cc(N5C[C@@H](N)C(C)(C)C5)ccc4C3)sc2n1` [Example 215, 3-amino-N-[(3R)-7-[(4S)-4-amino-3,3-dimethylpyrrolidin-1-yl]-3,4-dihydro-2H-1-benzopyran-3-yl]-6-methylthieno[2,3-b]pyridine-2-carboxamide] reads 0.001 to 0.05 µM; that for `Cc1ccc2c(N)c(C(=O)N[C@H]3COc4cc(N5CCO[C@@H]6CNC[C@@H]65)ccc4C3)sc2n1` [Example 185, N-[(3R)-7-[(4aS,7aR)-octahydropyrrolo[3,4-b]morpholin-4-yl]-3,4-dihydro-2H-1-benzopyran-3-yl]-3-amino-6-methylthieno[2,3-b]pyridine-2-carboxamide], 0.001 to 0.05 µM; that for `CO[C@H]1CN(c2ccc3c(c2)CC[C@H](NC(=O)c2cnc4c(c2)C2CC2CN4)C3)C[C@@H]1N` (stereo partly drawn) [Example 188, N-[(2S)-6-[(3S,4S)-3-amino-4-methoxypyrrolidin-1-yl]-1,2,3,4-tetrahydronaphthalen-2-yl]-5H,6H,6aH,7H,7aH-cyclopropa[c]1,8-naphthyridine-2-carboxamide], 0.2 to 2 µM. The result for `Cc1ccc2c(N)c(C(=O)N[C@H]3COc4cc(N5CC[C@H]6CC[C@H](N)C[C@H]65)ccc4C3)sc2n1` [Example 232, N-[(3R)-7-[(3aR,6S,7aR)-6-amino-octahydro-1H-indol-1-yl]-3,4-dihydro-2H-1-benzopyran-3-yl]-3-amino-6-methylthieno[2,3-b]pyridine-2-carboxamide] reads 0.001 to 0.05 µM; that for `CO[C@H]1CN(c2cc3c(cc2C#N)C[C@@H](NC(=O)c2sc4nc(C)ccc4c2N)CO3)C[C@@H]1N` [Example 177, 3-amino-N-[(3R)-7-[(3S,4S)-3-amino-4-methoxypyrrolidin-1-yl]-6-cyano-3-4-dihydro-2H-1-benzopyran-3-yl]-6-methylthieno[2,3-b]pyridine-2-carboxamide], 0.001 to 0.05 µM; that for `COC[C@@H]1CN(c2ccc3c(c2)CC[C@H](NC(=O)c2sc4nc(C)ccc4c2N)C3)C[C@@H]1N` [Example 252, 3-amino-N-[(2S)-6-[(3R,4R)-3-amino-4-(methoxymethyl)pyrrolidin-1-yl]-1,2,3,4-tetrahydronaphthalen-2-yl]-6-methylthieno[2,3-b]pyridine-2-carboxamide], 0.05 to 0.2 µM.

Usually IC50 stands for the point on the concentration scale where inhibition reaches its midpoint.

These data come from patent US11524966B1 (Valo Early Discovery, Inc., priority 2017, dated 2022).
